# Biological target: human P2X3 receptor (Homo sapiens (Human), UniProt P56373)
# Experiment: Evaluation of human P2X3 receptor inhibitory activity (Fluo-3 calcium fluorescence, FDSS 3000, ATP stimulation);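 also: stimulus was 50 nM ATP with fluorescence followed for 3 min, and the response per well was peak post-ATP fluorescence divided by the reading at measurement start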
# Assay type: cell-based
# Conditions: C6BU-1 cells stably expressing human P2X3 receptor
# Sequence of human P2X3 receptor (P56373 whole entry): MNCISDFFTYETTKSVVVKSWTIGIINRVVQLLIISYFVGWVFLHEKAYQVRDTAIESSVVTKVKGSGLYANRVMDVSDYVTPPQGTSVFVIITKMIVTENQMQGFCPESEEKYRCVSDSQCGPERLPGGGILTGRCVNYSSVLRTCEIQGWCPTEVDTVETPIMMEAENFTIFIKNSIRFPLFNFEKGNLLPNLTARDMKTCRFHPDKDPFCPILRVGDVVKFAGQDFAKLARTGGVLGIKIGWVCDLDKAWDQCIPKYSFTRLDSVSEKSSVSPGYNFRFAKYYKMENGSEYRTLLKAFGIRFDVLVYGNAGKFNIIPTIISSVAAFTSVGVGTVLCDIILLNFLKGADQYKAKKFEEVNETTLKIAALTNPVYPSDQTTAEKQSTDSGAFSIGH
row,SMILES,IC50
1,CCOC(=O)CCn1c(=O)[nH]/c(=N\c2ccc(CC(C)C)c(OC)c2)n(Cc2ccc(Cl)cc2)c1=O [Compound I-1308],29 nM
2,CCn1c(=O)[nH]/c(=N\c2ccc(Oc3cncc(C(=O)OC)c3)cc2)n(Cc2ccc(F)cc2)c1=O [Compound I-2111],44 nM
3,CC(C)Oc1ccc(/N=c2\[nH]c(=O)n(Cc3cc[nH]c(=O)c3)c(=O)n2Cc2ccc(Cl)cc2)cc1F [Compound I-0650],20 nM
4,COC(=O)C(C)(C)Cn1c(=O)[nH]/c(=N\c2ccc(CC(C)C)c(Cl)c2)n(Cc2ccc(C)cc2)c1=O [Compound I-1447],6 nM
5,Cc1ccc(Cn2c(=O)n(C[C@H](C)C(=O)O)c(=O)[nH]/c2=N\c2ccc(Cc3ccncc3)cc2)cc1 [Compound I-1262],163 nM
6,CCCCOc1ccc(/N=c2\[nH]c(=O)n(C[C@H](C)C(=O)O)c(=O)n2Cc2ccc(Cl)cc2)cc1 [Compound I-0819],22 nM
7,C=C(Cn1c(=O)[nH]/c(=N\c2ccc(OC(C)C)c(C)c2)n(Cc2ccc(Cl)cc2)c1=O)C(=O)OCC [Compound I-0779],16 nM
8,Cc1cc(/N=c2\[nH]c(=O)n([C@H]3C[C@@H](C(=O)O)N(C(=O)OC(C)(C)C)C3)c(=O)n2Cc2ccc(Cl)cc2)ccc1OC(C)C [Compound I-0708],966 nM
9,CCOC(=O)CCn1c(=O)[nH]/c(=N\c2ccc3[nH]c(C)c(C)c3c2)n(Cc2ccc(Cl)cc2)c1=O [Compound I-1931],9 nM
10,COC(=O)Cn1c(=O)[nH]/c(=N\c2ccc(OC3CCC3)cc2)n(Cc2ccc(Cl)cc2)c1=O [Compound I-1939],30 nM
11,COC(=O)[C@@H](C)Cn1c(=O)[nH]/c(=N\c2ccc(/C=C/C3CC3)cc2)n(Cc2ccc(C)cc2)c1=O [Compound I-1193],40 nM
12,Cc1cc2cc(/N=c3\[nH]c(=O)n(CC4COC(C)(C)OC4)c(=O)n3Cc3ccc(Cl)cc3)ccc2o1 [Compound I-2069],7 nM
13,COc1ccc(Cn2c(=O)[nH]/c(=N\c3ccc(OC(C)C)c(F)c3)n(Cc3ccc(Cl)cc3)c2=O)cn1 [Compound I-0641],26 nM
14,CCOc1ccc(/N=c2\[nH]c(=O)n(C[C@H](C)C(=O)O)c(=O)n2Cc2ccc(C)cc2)cc1Cl [Compound I-0682],23 nM
15,CC(C)Cc1ccc(/N=c2\[nH]c(=O)n(C[C@H](C)C(=O)O)c(=O)n2Cc2ccc(Cl)cc2)cc1Cl [Compound I-1372],5 nM
16,Cc1cc2cc(/N=c3\[nH]c(=O)n([C@@H](C)[C@@H](C)C(=O)O)c(=O)n3Cc3ccc(Cl)cc3)ccc2o1 [Compound I-1351],41 nM
17,NC(=O)Cn1c(=O)[nH]/c(=N\c2ccc(OCC3CC3)cc2)n(Cc2ccc(Cl)cc2)c1=O [Compound I-1940],55 nM
18,CCOC(=O)CC(C)(C)n1c(=O)[nH]/c(=N\c2ccc(OC(C)C)c(Cl)c2)n(Cc2ccc(Cl)cc2)c1=O [Compound I-0810],16 nM
19,Cc1ccc(Cn2c(=O)n(C[C@H](C)C(=O)O)c(=O)[nH]/c2=N\c2ccc(OC3CCC3)cc2)cc1 [Compound I-1220],13 nM
20,CCCn1c(=O)[nH]/c(=N\c2ccc(Oc3ccnc(C(=O)OC)c3)cc2)n(Cc2ccc(Cl)cc2)c1=O [Compound I-2160],3 nM
21,Cc1ccc(Cn2c(=O)n(C)c(=O)[nH]/c2=N\c2ccc(Oc3ccnc(CO)c3)cc2)cc1 [Compound I-2056],26 nM
22,"CC(C)Oc1ccc(/N=c2\[nH]c(=O)n(CCN/C(=N\C#N)Oc3ccccc3)c(=O)n2Cc2ccc(Cl)cc2)cc1F [Compound I-0652, 1-(4-chlorobenzyl)-6-(3-fluoro-4-isopropoxyphenylimino)-3-(4-cyanoimino-4-phenoxy-3-azabutyl)-1,3,5-triazinane-2,4-dion]",102 nM

# Same assay, conditions: C6BU-1 cells stably expressing human P2X3 receptor, Fluo-3 fluorescence, FDSS 3000
row,SMILES,IC50
1,CCc1oc2ccc(/N=c3\[nH]c(=O)n(C[C@H](CC)NC(C)=O)c(=O)n3Cc3ccc(Cl)cc3)cc2c1C [Compound I-1708],17 nM
2,Cc1ccc(Cn2c(=O)n(CCC(N)=O)c(=O)[nH]/c2=N\c2ccc3nc(C)sc3c2)cc1 [Compound I-1671],6 nM
3,CCc1oc2ccc(/N=c3\[nH]c(=O)n(CCCC(=O)O)c(=O)n3Cc3ccc(C)cc3)cc2c1C [Compound I-1630],15 nM
4,Cc1ccc(Cn2c(=O)n(C[C@H](C)C(=O)O)c(=O)[nH]/c2=N\c2ccc(C=C3CCCC3)cc2)cc1 [Compound I-1098],74 nM
5,COC(=O)[C@@H](C)Cn1c(=O)[nH]/c(=N\c2ccc(C3=CCCC3)cc2)n(Cc2ccc(C)cc2)c1=O [Compound I-1083],125 nM
6,CCOC(=O)CCn1c(=O)[nH]/c(=N\c2ccc(OCCC(C)C)cc2)n(Cc2ccc(C)cc2)c1=O [Compound I-1055],91 nM
7,CCCOc1ccc(/N=c2\[nH]c(=O)n([C@@H](C)[C@@H](C)C(=O)OC)c(=O)n2Cc2ccc(C)cc2)cc1 [Compound I-0926],31 nM
8,C[C@H](Cn1c(=O)[nH]/c(=N\c2ccc(OCC3CC3)cc2)n(Cc2ccc(Cl)cc2)c1=O)C(=O)O [Compound I-1037],93 nM
9,CCc1oc2ccc(/N=c3\[nH]c(=O)n(CC4COC(C)(C)OC4)c(=O)n3Cc3ccc(Cl)cc3)cc2c1C [Compound I-1840],7 nM
10,COC(=O)[C@@H](C)Cn1c(=O)[nH]/c(=N\c2ccc(N3CCCCC3)cc2)n(Cc2ccc(C)cc2)c1=O [Compound I-1085],34 nM
11,COC(=O)[C@H](C)[C@H](C)n1c(=O)[nH]/c(=N\c2ccc(OC(C)C)c(Cl)c2)n(Cc2ccc(Cl)cc2)c1=O [Compound I-0917],19 nM
12,CCOc1ccc(/N=c2\[nH]c(=O)n([C@@H](C)[C@@H](C)C(=O)O)c(=O)n2Cc2ccc(Cl)cc2)cc1Cl [Compound I-0922],29 nM
13,CCc1oc2ccc(/N=c3\[nH]c(=O)n(CC(=O)NC)c(=O)n3Cc3ccc(Cl)cc3)cc2c1C [Compound I-1657],9 nM
14,CCOC(=O)CCn1c(=O)[nH]/c(=N\c2ccc(OCC3CC3)cc2)n(Cc2ccc(C)cc2)c1=O [Compound I-1146],9 nM
15,Cc1ccc(Cn2c(=O)n([C@@H](C)[C@@H](C)C(=O)O)c(=O)[nH]/c2=N\c2ccc(OCC3CC3)cc2)cc1 [Compound I-0972],38 nM

# Same assay, conditions: human P2X3 receptor, Test Example 1
row,SMILES,IC50
1,CCn1c(=O)[nH]/c(=N\c2ccc(Oc3cccc(C(=O)O)n3)cc2)n(C[C@H]2CC[C@H](C)CC2)c1=O [Compound I-2499],5 nM
2,"CC(C)Oc1ccc(/N=c2\[nH]c(=S)n(C(C)C)c(=O)n2Cc2ccc(Cl)cc2)cc1 [Compound I-2254, 1-(4-chlorobenzyl)-3-isopropyl-6-(4-isopropoxyphenylimino)-4-thioxo-1,3,5-triazinane-2-one]",78 nM
3,CCn1c(=O)[nH]/c(=N\c2ccc(Oc3ccnc(C(N)=O)c3)cc2)n(Cc2ccc(F)cc2)c1=O [Compound I-2361],15 nM
4,CCn1c(=O)[nH]/c(=N\c2ccc(Oc3nccc(C(=O)O)n3)cc2)n(Cc2ccc(Cl)cc2)c1=O [Compound I-2319],17 nM
5,CCn1c(=O)[nH]/c(=N\c2ccc(Oc3cccc(C(=O)O)n3)cc2)n(Cc2ccc(Cl)cn2)c1=O [Compound I-2239],49 nM
6,CCn1c(=O)[nH]/c(=N\c2ccc(Oc3cccc(C(=O)O)n3)cc2)n(Cc2ncc(Cl)cn2)c1=O [Compound I-2553],216 nM
7,O=c1[nH]/c(=N\c2ccc(Oc3cncc(F)c3)cc2)n(Cc2ccc(Cl)cc2)c(=O)n1CCO [Compound I-2420],9 nM
8,CCn1c(=O)[nH]/c(=N\c2ccc(Oc3cncc(C(N)=O)n3)cc2)n(Cc2ccc(Cl)cc2)c1=O [Compound I-2284],< 4 nM
9,O=c1[nH]/c(=N\c2ccc(Oc3ccon3)cc2)n(Cc2ccc(Cl)cc2)c(=O)n1CCCO [Compound I-2358],6 nM
10,Cn1c(=O)[nH]/c(=N\c2ccc(Oc3ccc(C#N)cn3)cc2)n(Cc2ccc(Cl)cc2)c1=O [Compound I-2392],11 nM
11,CCn1c(=O)[nH]/c(=N\c2ccc(Sc3ccc(C(=O)OC)cc3)cc2)n(Cc2ccc(Cl)cc2)c1=O [Compound I-2597],215 nM
12,CCCn1c(=O)[nH]/c(=N\c2ccc(Oc3ccc(C#N)nc3)cc2)n(Cc2ccc(Cl)cc2)c1=O [Compound I-2230],2 nM
13,Cc1nc(-c2ccc(/N=c3\[nH]c(=O)n(C[C@H](C)C(=O)O)c(=O)n3Cc3ccc(Cl)cc3)cc2)no1 [Compound I-1530],93 nM
14,CCn1c(=O)[nH]/c(=N\c2ccc(Oc3ccc(C(=O)OC)nc3)cc2)n(Cc2ccc(Cl)cn2)c1=O [Compound I-2275],10 nM
15,Cc1ccc(Cn2c(=O)n(C[C@H](C)C(=O)O)c(=O)[nH]/c2=N\c2cc(Cl)cc(Cl)c2)cc1 [Compound I-1500],897 nM
16,C=C(C)c1ccc(/N=c2\[nH]c(=O)n(C[C@H](C)C(=O)OC)c(=O)n2Cc2ccc(C)cc2)cc1Cl [Compound I-1491],284 nM
17,CC(=O)Nc1cc(Oc2ccc(/N=c3\[nH]c(=O)n(C)c(=O)n3Cc3ccc(Cl)cc3)cc2)ccn1 [Compound I-2431],18 nM
18,Cn1c(=O)[nH]/c(=N\c2ccc(Oc3ccc(C(N)=O)nc3)cc2)n(Cc2ccc(Cl)cc2)c1=O [Compound I-2406],10 nM
19,O=C(Cn1c(=O)[nH]/c(=N\c2ccc(Oc3cnsn3)cc2)n(Cc2ccc(Cl)cc2)c1=O)NCCO [Compound I-2677],7 nM
20,CCOc1ccc(/N=c2\[nH]c(=O)n(CCCC(=O)O)c(=O)n2Cc2ccc(C)cc2)cc1Cl [Compound I-0874],86 nM
21,CCn1c(=S)[nH]/c(=N\c2ccc(Oc3ccnc(O)c3)cc2)n(Cc2ccc(Cl)cc2)c1=O [Compound I-2258],3 nM
22,Cc1cc(Oc2ccc(/N=c3\[nH]c(=O)n(C[C@H]4COC(C)(C)O4)c(=O)n3Cc3ccc(Cl)cc3)cc2)n(C)n1 [Compound I-2368],13 nM
23,CCn1c(=O)[nH]/c(=N\c2ccc(Oc3cccc(C(=O)O)n3)cc2)n(Cc2ccc(F)cc2)c1=O [Compound I-2496],30 nM
24,Cc1ccc(Cn2c(=O)n(C[C@H](C)C(=O)O)c(=O)[nH]/c2=N\c2cnc(OC3CCC3)c(C)c2)cc1 [Compound I-1482],98 nM
25,CCn1c(=O)[nH]/c(=N\c2ccc(Oc3cncc(C#N)c3)cc2)n(Cc2ccc(Cl)cn2)c1=O [Compound I-2318],18 nM
26,CCn1c(=O)[nH]/c(=N\c2ccc(Oc3ccc(C#N)nn3)cc2)n(Cc2ccc(Cl)cc2)c1=O [Compound I-2601],12 nM

# From US9718790B2, “Triazine derivative and pharmaceutical composition having an analgesic activity comprising the same” (SHIONOGI & CO., LTD., priority 2010, dated 2017)
